Entries after “also recorded” stand apart in the source; their conditions may differ.
How the values were obtained:
[1] = test system: Isolated, perfused female guinea pig hearts; assay: Dose finding: cardioversion of acetylcholine/burst-pacing induced AF in Langendorff heart; settings: for cardioversion obtained (animals converted out of animals): within 30 min, AF induced by 1 μmol/L ACh and burst pacing
Description: (§1) The isolated heart was prepared as follows. Guinea pigs weighing between 350 and 600 g were anesthetized with i.p. injection of 200 mg/kg pentobarbital. In addition, 1000 IU/kg heparin were injected i.p. Respiration was maintained by artificial ventilation(atm air) through a cannula in the trachea (volume, 12 ml/kg; rate, 60 strokes/min). Upon thoracotomy, a perfusion cannula was inserted and fixed in the aorta for retro-grade perfusion. Hearts were mounted in a vertical Langendorff set-up (Hugo Sachs-Harvard Apparatus GmbH, March-Hugstetten, Germany) and perfused with Krebs-Henseleit solution: 120.4 mM NaCl, 4.0 mM KCl, 2.5 mM CaCl2, 0.6 mM MgSO4, 15.3 mM NaHCO3, 0.6 mM NaH2PO4, and 11.5 mM glucose, pH 7.4, at constant oxygenation with O2/CO2 in a 95/5% mixture at 37° C. Four monophasic action potential (MAP) electrodes were placed on the left atrium, the right atrium, the left ventricle, and right ventricle, respectively. A pacing electrode was placed on the right atrium. The electro-cardiogram (ECG) was obtained with three ECG electrodes placed in close proximity to the heart. All data were acquired using the 16-channel PowerLab system (ADInstruments, Oxfordshire, UK). Pacing stimuli were twice the diastolic threshold and with a duration of 2 milliseconds (ms) unless otherwise stated.
Isolated, perfused female guinea pig hearts from Dunkin Hartley strain (HsdPoc:DH) continuously paced on the right atrium (300 bpm) were allowed to stabilize, and the atrial effective refractory period (aERP) was measured. AF was induced by 1 μmol/L acetylcholine (ACh) combined with burst pacing (50 Hz, 10V). When sustained (>3minutes) AF was obtained, the test compound from a stock concentration of 10 mMol/L in DMSO was added to the perfusate in a concentration of 100 nmol/L for 30 min. If no cardioversion was obtained within 30 minutes, the concentration of the compound in the perfusate was increased to 300 nmol/L. If no cardioversion was obtained within an additional time period of 30 minutes, the concentration of the compound in the perfusate was increased to 1.0 μmol/L. If no cardioversion was obtained within a further time period of 30 minutes, the concentration of the compound in the perfusate was increased to 3.0 μmol/L. If no cardioversion was obtained within an additional time period of 30 minutes, the concentration of the compound in the perfusate was increased to 10.0 μmol/L. If no cardioversion was obtained within an additional time period of 30 minutes, the concentration of the compound in the perfusate was increased to 30.0 μmol/L. Cardioversion was considered obtained if sinus rhythm was obtained within 30 minutes of one of the above mentioned drug applications, and if sustained AF could not be reinduced with burst pacing stimulation immediately after this.

[2] = test system: Isolated, perfused female guinea pig hearts; assay: Effect on atrial effective refractory period (aERP) in Langendorff heart; settings: for prolongation of aERP from baseline values as compared to time matched controls (in words): administered alone, ICA 100 nmol/L, flecainide 1 μmol/L, ranolazine 3 μmol/L; for percentual prolongation of aERP after 30 minutes of perfusion as compared to the baseline: ICA 0.1 μM, flecainide 1 μM, ranolazine 3 μM, ±SEM
Description: as §1
(§2) The aERP was measured (10 basic stimuli [called S1] followed by premature S2 stimuli applied with 2-ms decrements) immediately before and at the end of the 30-minute period at pacing rates of 5 Hz and 10 Hz. After the 30 minutes of perfusion with either 100 nmol/L N-(pyridin-2-yl)-4-(pyridin-2-yl)thiazol-2-amine (ICA), 1 μmol/L flecainide, or 3 μmol/L ranolazine, or vehicle, 1 μmol/L ACh was added to the perfusate and induction of AF was attempted 40 times with burst-pacing (50 Hz) for 2 seconds or until sustained (duration>3 min) AF was obtained (test compound dissolved in DMSO in a stock concentration of 10 mMol/L). ICA in a concentration of 100 nmol/L was then tested in combination with either 1 μmol/L flecainide or 3 μmol/L ranolazine using the same protocol as described above in this section.

[3] = test system: Isolated, perfused female guinea pig hearts; assay: Effect on AF duration (ACh plus burst pacing) in Langendorff heart; settings: for reduction of AF duration as compared to time matched controls (in words): administered alone, ICA 100 nmol/L, flecainide 1 μmol/L, ranolazine 3 μmol/L; for Log AF duration: log(10)-transformed, means±SEM, 1 μmol/L ACh, burst pacing 50 Hz, ICA 0.1 μM, flecainide 1 μM, ranolazine 3 μM
Description: as §1, §2

[4] = concentration 3.0 μM in perfusate

SMILES: O=C(NCC1CCCCN1)c1cc(OCC(F)(F)F)ccc1OCC(F)(F)F (stereo not drawn) [Flecainide, N-(piperidin-2-ylmethyl)-2,5-bis(2,2,2-trifluoroethoxy)benzamide]
- cardioversion obtained (animals converted out of animals) [1, 4]: 2/4
- cardioversion obtained (animals converted out of animals) ([1]; concentration 10.0 μM in perfusate): 2/4
- prolongation of aERP from baseline values as compared to time matched controls (in words) [2]: no significant prolongation of aERP; also recorded: sub-effective
- percentual prolongation of aERP after 30 minutes of perfusion as compared to the baseline ([2]; pacing frequency 5 Hz): 123.0 ± 2.6%
- percentual prolongation of aERP after 30 minutes of perfusion as compared to the baseline ([2]; pacing frequency 10 Hz): 124.6 ± 8.0%
- reduction of AF duration as compared to time matched controls (in words) [3]: no significant reduction of AF duration; also recorded: sub-effective
- Log AF duration [3]: 1.27 ± 0.14

SMILES: c1ccc(Nc2nc(-c3ccccn3)cs2)nc1 [ICA, N-(pyridin-2-yl)-4-(pyridin-2-yl)thiazol-2-amine]
- cardioversion obtained (animals converted out of animals) ([1]; concentration 0.3 μM in perfusate): 4/4
- prolongation of aERP from baseline values as compared to time matched controls (in words) [2]: no significant prolongation of aERP; also recorded: does not cause any significant effects
- percentual prolongation of aERP after 30 minutes of perfusion as compared to the baseline ([2]; pacing frequency 5 Hz): 112.5 ± 3.8%
- percentual prolongation of aERP after 30 minutes of perfusion as compared to the baseline ([2]; pacing frequency 10 Hz): 119.3 ± 10.6%
- reduction of AF duration as compared to time matched controls (in words) [3]: no significant reduction of AF duration; also recorded: does not cause any significant effects
- Log AF duration [3]: 1.29 ± 0.15

SMILES: COc1ccccc1OCC(O)CN1CCN(CC(=O)Nc2c(C)cccc2C)CC1 (stereo not drawn) [Ranolazine, N-(2,6-dimethylphenyl)-2-[4-[2-hydroxy-3-(2-methoxyphenoxy)-propyl]piperazin-1-yl]acetamide]
- cardioversion obtained (animals converted out of animals) ([1]; concentration 1.0 μM in perfusate): 1/5
- cardioversion obtained (animals converted out of animals) [1, 4]: 2/5
- No cardioversion (animals out of animals) ([1]; stepwise 0.1 to 30.0 μM, 30 min each): 2/5
- prolongation of aERP from baseline values as compared to time matched controls (in words) [2]: no significant prolongation of aERP; also recorded: sub-effective
- percentual prolongation of aERP after 30 minutes of perfusion as compared to the baseline ([2]; pacing frequency 5 Hz): 114.81 ± 12.7%
- percentual prolongation of aERP after 30 minutes of perfusion as compared to the baseline ([2]; pacing frequency 10 Hz): 114.4 ± 9.9%
- reduction of AF duration as compared to time matched controls (in words) [3]: no significant reduction of AF duration; also recorded: sub-effective
- Log AF duration [3]: 1.11 ± 0.23

Reference: patent US20150164871A1, “Pharmaceutical Compositions for Combination Therapy” (Acesion Pharma, priority 2012, published 2015)
